Some results are limits rather than exact numbers.

Our source for the IC50 and Ki values is ChEMBL document CHEMBL1799949, “Enantioselective binding of second generation pyrrolobenzoxazepinones to the catalytic ternary complex of HIV-1 RT wild-type and L100I and K103N drug resistant mutants” (Bioorg Med Chem Lett, 2011).

For test [1], the target named is T1, Human immunodeficiency virus type 1 reverse transcriptase (Human immunodeficiency virus 1, UniProt Q72547). Put plainly: Inhibition of HIV1 wild type reverse transcriptase.
Test [2] concerns the target T2, Human immunodeficiency virus type 1 reverse transcriptase (Human immunodeficiency virus 1, UniProt Q72547, K103N). In words: Inhibition of HIV1 reverse transcriptase K103N mutant.
Test [3] has as its target T3, Human immunodeficiency virus type 1 reverse transcriptase (Human immunodeficiency virus 1, UniProt Q72547, L100I). Put plainly: Inhibition of HIV1 reverse transcriptase L100I mutant.
Test [4] addresses T4, Human immunodeficiency virus type 1 reverse transcriptase (Human immunodeficiency virus 1, UniProt Q72547, V179D). In words: Inhibition of HIV1 reverse transcriptase V179D mutant.
The target of test [5] is T1, Human immunodeficiency virus type 1 reverse transcriptase. Put plainly: Inhibition of HIV1 free wild type reverse transcriptase.
Test [6] concerns the target T2, Human immunodeficiency virus type 1 reverse transcriptase. In words: Inhibition of HIV1 free reverse transcriptase K103N mutant.
The target in test [7] is T3, Human immunodeficiency virus type 1 reverse transcriptase. Put plainly: Inhibition of HIV1 free reverse transcriptase L100I mutant.
The target of test [8] is T4, Human immunodeficiency virus type 1 reverse transcriptase. In words: Inhibition of HIV1 free reverse transcriptase V179D mutant.
Test [9] addresses T1, Human immunodeficiency virus type 1 reverse transcriptase. Put plainly: Inhibition of HIV1 wild type reverse transcriptase/poly(rA)/oligo(dT) DNA binary complex.
Test [10] addresses T2, Human immunodeficiency virus type 1 reverse transcriptase. In words: Inhibition of HIV1 reverse transcriptase K103N mutant/poly(rA)/oligo(dT) DNA binary complex.
In test [11] the target is T3, Human immunodeficiency virus type 1 reverse transcriptase. Put plainly: Inhibition of HIV1 reverse transcriptase L100I mutant/poly(rA)/oligo(dT) DNA binary complex.
Test [12] has as its target T4, Human immunodeficiency virus type 1 reverse transcriptase. In words: Inhibition of HIV1 reverse transcriptase V179D mutant/poly(rA)/oligo(dT) DNA binary complex.
Test [13] deals with T1, Human immunodeficiency virus type 1 reverse transcriptase. Put plainly: Inhibition of HIV1 wild type reverse transcriptase/poly(rA)/oligo(dT) DNA/dTTP ternary complex.
In test [14] the target is T2, Human immunodeficiency virus type 1 reverse transcriptase. In words: Inhibition of HIV1 reverse transcriptase K103N mutant/poly(rA)/oligo(dT) DNA/dTTP ternary complex.
Test [15] has as its target T3, Human immunodeficiency virus type 1 reverse transcriptase. Put plainly: Inhibition of HIV1 reverse transcriptase L100I mutant/poly(rA)/oligo(dT) DNA/dTTP ternary complex.
The target in test [16] is T4, Human immunodeficiency virus type 1 reverse transcriptase. In words: Inhibition of HIV1 reverse transcriptase V179D mutant/poly(rA)/oligo(dT) DNA/dTTP ternary complex.

In the case of `CCC1(c2ccc(CSc3ccc(F)cc3Cl)cc2)Oc2ccccc2-n2cccc2C1=O` (racemic), the IC50 in [1] was 0.61 µM; in [2] it was 20.5 µM; in [3], over 400 µM; in test [4], over 40 µM.
In the case of `CCC1(c2ccc(CSc3ccc(F)cc3)cc2)Oc2ccccc2-n2cccc2C1=O` (racemic), the IC50 in test [1] was 0.25 µM; in [2], 3.35 µM; in test [3] it was over 400 µM; in test [4], over 40 µM.
For `CCC1(c2ccc(CSc3ccccc3)cc2)Oc2ccccc2-n2cccc2C1=O` (single isomer, unassigned; (+)), the Ki in test [5] stood at 0.42 µM; in test [6], 1.35 µM; in test [7], 0.7 µM; in [8], 0.78 µM; in test [9], 0.42 µM; in test [10], 1.35 µM. For the same compound, the inhibition constant Ki in test [11] is 0.7 µM; in [12], 0.78 µM; in test [13], 0.1 µM; in test [14], 0.78 µM; in [15], 0.51 µM; in test [16] it was 0.54 µM.
Consider `CCC1(c2ccc(CSc3c(Cl)cccc3Cl)cc2)Oc2ccccc2-n2cccc2C1=O` (racemic), for which the IC50 is 7.36 µM in test [1], over 400 µM in [2], over 400 µM in [3] and over 40 µM in [4].
As for `CCC1(c2ccc(CSc3ccccc3)cc2)Oc2ccccc2-n2cccc2C1=O` (racemic), the concentration for half-maximal inhibition (IC50) in test [1] is 0.06 µM; in test [2], 0.25 µM; in test [3], 0.99 µM; in [4], 0.15 µM.
Take `CCC1(c2ccc(COc3ccccc3)cc2)Oc2ccccc2-n2cccc2C1=O` (racemic): the IC50 in test [1] amounted to 0.15 µM; in test [2], 0.4 µM; in test [3], 0.2 µM.
As for `CCC1(c2ccc(CSc3ccc(Br)cc3)cc2)Oc2ccccc2-n2cccc2C1=O` (racemic), the IC50 in [1] is 0.06 µM; in test [2], 1.16 µM; in [3], over 400 µM; in test [4], 0.29 µM.
The like results for `CCC1(c2ccc(COc3cccc(Cl)c3)cc2)Oc2ccccc2-n2cccc2C1=O` (racemic) were, in that order, 0.1 µM, 0.3 µM, 0.25 µM and 0.3 µM.
`CCC1(c2ccc(CSc3ccc(F)cc3Cl)cc2)Oc2ccccc2-n2cccc2C1=O` (single isomer, unassigned; (+)): the Ki in test [5] stood at 0.09 µM; in test [6], 0.51 µM; in test [7] it was 0.2 µM; in [8], 0.14 µM; in [9], 0.09 µM; in [10], 0.51 µM. The inhibition constant (Ki) in test [11] came out at 0.2 µM; in [12], 0.14 µM; in test [13] it was 0.01 µM; in test [14], 0.02 µM; in test [15], 0.15 µM; in [16], 0.12 µM.
For the compound `CCC1(c2ccc(CSc3ccc(Br)cc3)cc2)Oc2ccccc2-n2cccc2C1=O` (single isomer, unassigned; (+)), the Ki in test [5] came to 0.4 µM; in test [6] it was 2.21 µM; in test [7], 1.2 µM; in [8], 0.62 µM; in test [9] it was 0.4 µM; in test [10] it was 2.21 µM. Also, the Ki in test [11] stood at 1.2 µM; in test [12], 0.62 µM; in [13], 0.11 µM; in test [14], 1.04 µM; in test [15], 0.03 µM; in [16], 0.19 µM.
